Reference: patent US12121522B2, “Methods of treating cancer with an mTOR inhibitor” (Revolution Medicines, Inc., priority 2022, dated 2024)
“And” between values parts separate entries of the source, which are not always exact repeats. Identical values can stand only once.

What was measured:
[1] = Clinical safety (TEAEs, TRAEs, SAEs, DLTs), study RMC-5552-001
Description: RMC-5552 is currently being evaluated as a monotherapy in a FIH, dose-escalation, Phase 1/1b study (RMC-5552-001) in adult subjects with advanced relapsed/refractory solid tumors (see Example 3 for additional study protocol details.) The purpose of this study is to evaluate safety, tolerability, preliminary efficacy, PK, and pharmacodynamics of RMC-5552 monotherapy. The primary objective is to characterize the safety and tolerability of RMC-5552 monotherapy and to define the MTD and the Recommended Phase 2 Dose (RP2DS) and schedule for RMC-5552 monotherapy in subjects with relapsed/refractory solid tumors.
Adverse events (AEs) were based on the Medical Dictionary for Regulatory Activities (MedDRA) preferred terms and included the grouped preferred term of stomatitis/mucositis using mucosal inflammation, oral pain, and stomatitis. […] Of note, the grouped term of stomatitis/mucositis comprised events of (based on MedDRA PT) mucosal inflammation, oral pain, and stomatitis.
In the Dose-Escalation Phase, assessment of safety and tolerability will be the primary endpoints and will be directly measured by the incidence of dose-limiting toxicities (DLTs), treatment-emergent adverse events (TEAEs), and serious adverse events (SAEs). The starting dose of RMC-5552 will be 1.6 mg once weekly (QW) via intravenous (IV) infusion. The first cycle of treatment (i.e., first 21 days after treatment initiation) constitutes the DLT evaluation period.
A DLT is defined as a toxicity that is considered at least possibly related to study intervention, occurs within the first 21 days of treatment initiation (i.e., during Cycle 1), and meets at least 1 of the following criteria (with severity graded according to Common Terminology Criteria for Adverse Events [CTCAE] v5): […]

[2] = system: HCC-1954 PIK3CA^H1047R breast cancer CDX; assay: HCC-1954 breast cancer xenograft; type: in vivo, mouse; conditions: two values
Experimental: (§1) The antitumor activity of RMC-5552 as a single agent against tumors predicted to be dependent on the mTOR pathway and/or bearing specific PI3K/mTOR pathway-activating mutations (i.e., PIK3CA^mut, phosphatase and tensin homolog [PTEN^LOF], or co-mutation of both and tuberous sclerosis complex [TSC^LOF]) was evaluated in selected CDX and/or PDX models
(§2) Table 1. RMC-5552 was administered IP once weekly at 1, 3, 10, and 30 mg/kg. In the breast cancer MCF7 PIK3CA^[…] model, a higher dose of 50 mg/kg once weekly and an alternate dose regimen of 30 mg/kg every 10 days were also evaluated.

[3] = system: BXF 2211 TSC1^-/- bladder cancer; assay: BXF 2211 bladder cancer xenograft; type: in vivo, mouse
Experimental: as §1, §2

[4] = 10 mg QW (2-hour infusion) 21-Day cycle (N = 5)

Question: Which “Treatment-emergent SAE Wound infection, number (%) of subjects” value ([1]; 1.6 mg QW 21-Day cycle (N = 2)) does the source give for `CO[C@H]1C[C@@H]2CC[C@@H](C)[C@@](O)(O2)C(=O)C(=O)N2CCCC[C@H]2C(=O)O[C@H]([C@H](C)C[C@@H]2CC[C@@H](OC(=O)NCCOCCOCCOCCOCCOCCOCCOCCOCCC(=O)N3CCc4cc(Cn5nc(-c6ccc7oc(N)nc7c6)c6c(N)ncnc65)ccc4C3)[C@H](OC)C2)C[C@@H](O)[C@H](C)/C=C(\C)[C@@H](O)[C@@H](OC)C(=O)[C@H](C)C[C@H](C)/C=C/C=C/C=C/1C` [RMC-5552] here?
Answer: 0 subjects

Question: And the “Treatment-emergent SAE Wound infection, number (%) of subjects” value ([1]; 3 mg QW 21-Day cycle (N = 3))?
Answer: 0 subjects

Question: What about the “Treatment-emergent SAE Wound infection, number (%) of subjects” value ([1]; 6 mg QW 21-Day cycle (N = 12)) of the same compound?
Answer: 0 subjects

Question: And the “Treatment-emergent SAE Wound infection, number (%) of subjects” value ([1]; 8 mg QW 21-Day cycle (N = 15))?
Answer: 1 subjects

Question: What about the “Treatment-emergent SAE Urinary tract infection, number (%) of subjects” value [1, 4] of the same compound?
Answer: 0 subjects

Question: What about the “Treatment-emergent SAE Wound infection, number (%) of subjects” value [1, 4] of the same compound?
Answer: 0 subjects

Question: What about the “Treatment-emergent SAE Wound infection, number (%) of subjects” value ([1]; 12 mg QW 21-Day cycle (N = 2)) of the same compound?
Answer: 0 subjects

Question: What about the “Treatment-emergent SAE Urinary tract infection, number (%) of subjects” value ([1]; Overall (N = 39)) of the same compound?
Answer: 1 subjects

Question: What about the “Treatment-emergent SAE Wound infection, number (%) of subjects” value ([1]; Overall (N = 39)) of the same compound?
Answer: 1 subjects

Question: And the DLT rate ([1]; human, in vivo)?
Answer: (3.0%)

Question: And the “Grade ≥3 TEAE: anemia” value ([1]; human, in vivo)?
Answer: 15.4%

Question: And the “Grade ≥3 TEAE: dysphagia” value ([1]; human, in vivo)?
Answer: 5.1%

Question: And the “Grade ≥3 TEAE: fatigue” value ([1]; human, in vivo)?
Answer: 5.1%

Question: And the “Grade ≥3 TEAE: rash (grouped term)” value ([1]; human, in vivo)?
Answer: 5.1%

Question: What about the “Grade ≥3 TEAE: stomatitis/mucositis” value ([1]; human, in vivo) of the same compound?
Answer: 10.3%

Question: And the “Grade ≥3 TEAE: urinary tract infection” value ([1]; human, in vivo)?
Answer: 5.1%

Question: What about the “Number of subjects with any SAE (treatment-emergent)” value ([1]; human, in vivo) of the same compound?
Answer: 14 subjects

Question: And the “SAEs assessed as treatment-related by investigators” value ([1]; human, in vivo)?
Answer: No SAEs were assessed as treatment-related

Question: What about the “TEAE any grade: abdominal pain” value ([1]; human, in vivo) of the same compound?
Answer: 20.5%

Question: What about the “TEAE any grade: anemia” value ([1]; human, in vivo) of the same compound?
Answer: 25.6%

Question: And the “TEAE any grade: decreased appetite” value ([1]; human, in vivo)?
Answer: 43.6%

Question: What about the “TEAE any grade: diarrhea” value ([1]; human, in vivo) of the same compound?
Answer: 23.10%

Question: And the “TEAE any grade: dyspnea” value ([1]; human, in vivo)?
Answer: 28.20%

Question: And the “TEAE any grade: fatigue” value ([1]; human, in vivo)?
Answer: 61.5%

Question: And the “TEAE any grade: headache” value ([1]; human, in vivo)?
Answer: 20.5%

Question: What about the “TEAE any grade: nausea” value ([1]; human, in vivo) of the same compound?
Answer: 41.0%

Question: And the “TEAE any grade: rash (grouped term)” value ([1]; human, in vivo)?
Answer: 28.20%

Question: What about the “TEAE any grade: vomiting” value ([1]; human, in vivo) of the same compound?
Answer: 30.80%

Question: And the “TRAE: decreased appetite” value ([1]; human, in vivo)?
Answer: 25%

Question: And the “TRAE: diarrhea” value ([1]; human, in vivo)?
Answer: 25%

Question: What about the “TRAE: fatigue” value ([1]; human, in vivo) of the same compound?
Answer: 25%

Question: And the “TRAE: mucositis/stomatitis” value ([1]; human, in vivo)?
Answer: 35%

Question: And the “TRAE: nausea” value ([1]; human, in vivo)?
Answer: 25%

Question: And the “Treatment-emergent SAE Acute kidney injury, number (%) of subjects” value ([1]; human, in vivo)?
Answer: 1 subjects

Question: What about the “Treatment-emergent SAE Anaemia, number (%) of subjects” value ([1]; human, in vivo) of the same compound?
Answer: 1 subjects

Question: What about the “Treatment-emergent SAE Anemia along with occlusion, number (%) of subjects” value ([1]; human, in vivo) of the same compound?
Answer: 1 subjects

Question: What about the “Treatment-emergent SAE Atrial fibrillation, number (%) of subjects” value ([1]; human, in vivo) of the same compound?
Answer: 1 subjects

Question: What about the “Treatment-emergent SAE Dehydration, number (%) of subjects” value ([1]; human, in vivo) of the same compound?
Answer: 1 subjects

Question: And the “Treatment-emergent SAE Dyspnea, number (%) of subjects” value ([1]; human, in vivo)?
Answer: 1 subjects

Question: What about the “Treatment-emergent SAE Embolism, number (%) of subjects” value ([1]; human, in vivo) of the same compound?
Answer: 1 subjects

Question: And the “Treatment-emergent SAE Face Oedema, number (%) of subjects” value ([1]; human, in vivo)?
Answer: 1 subjects

Question: And the “Treatment-emergent SAE Failure to Thrive, number (%) of subjects” value ([1]; human, in vivo)?
Answer: 1 subjects

Question: What about the “Treatment-emergent SAE Fatigue, number (%) of subjects” value ([1]; human, in vivo) of the same compound?
Answer: 1 subjects

Question: What about the “Treatment-emergent SAE Hypotension, number (%) of subjects” value ([1]; human, in vivo) of the same compound?
Answer: 1 subjects

Question: And the “Treatment-emergent SAE Large intestinal obstruction, number (%) of subjects” value ([1]; human, in vivo)?
Answer: 1 subjects

Question: What about the “Treatment-emergent SAE Lower gastrointestinal hemorrhage, number (%) of subjects” value ([1]; human, in vivo) of the same compound?
Answer: 1 subjects

Question: What about the “Treatment-emergent SAE Oedema peripheral, number (%) of subjects” value ([1]; human, in vivo) of the same compound?
Answer: 1 subjects

Question: And the “Treatment-emergent SAE Pain in extremity, number (%) of subjects” value ([1]; human, in vivo)?
Answer: 1 subjects

Question: What about the “Treatment-emergent SAE Pleural effusion, number (%) of subjects” value ([1]; human, in vivo) of the same compound?
Answer: 1 subjects

Question: What about the “Treatment-emergent SAE Pneumonia aspiration, number (%) of subjects” value ([1]; human, in vivo) of the same compound?
Answer: 1 subjects

Question: And the “Treatment-emergent SAE Pneumonia, number (%) of subjects” value ([1]; human, in vivo)?
Answer: 1 subjects

Question: And the “Treatment-emergent SAE Pneumothorax, number (%) of subjects” value ([1]; human, in vivo)?
Answer: 1 subjects

Question: And the “Treatment-emergent SAE Rash maculopapular, number (%) of subjects” value ([1]; human, in vivo)?
Answer: 1 subjects

Question: And the “Treatment-emergent SAE Rectourethral fistula, number (%) of subjects” value ([1]; human, in vivo)?
Answer: 1 subjects

Question: What about the “Treatment-emergent SAE Small intestinal obstruction, number (%) of subjects” value ([1]; human, in vivo) of the same compound?
Answer: 1 subjects

Question: What about the “Treatment-emergent SAE Small intestinal perforation, number (%) of subjects” value ([1]; human, in vivo) of the same compound?
Answer: 1 subjects

Question: What about the “Treatment-emergent SAE Stomatitis/mucositis, number (%) of subjects” value ([1]; human, in vivo) of the same compound?
Answer: 1 subjects

Question: And the “Treatment-emergent SAE Vascular occlusion, number (%) of subjects” value ([1]; human, in vivo)?
Answer: 1 subjects

Question: What about the dose-limiting toxicities ([1]; human, in vivo) of the same compound?
Answer: no dose-limiting toxicities

Question: And the “drug-related adverse event: decreased appetite” value ([1]; human, in vivo)?
Answer: 32%

Question: And the “drug-related adverse event: fatigue” value ([1]; human, in vivo)?
Answer: 41%

Question: And the “drug-related adverse event: nausea” value ([1]; human, in vivo)?
Answer: 36%

Question: What about the “drug-related adverse event: stomatitis/mucositis” value ([1]; human, in vivo) of the same compound?
Answer: 41%

Question: What about the “drug-related adverse event: vomiting” value ([1]; human, in vivo) of the same compound?
Answer: 23%

Question: And the “event of interest: edema peripheral” value ([1]; human, in vivo)?
Answer: 10.3%

Question: What about the “event of interest: hyperglycemia” value ([1]; human, in vivo) of the same compound?
Answer: 7.7%

Question: And the “event of interest: rash maculo-papular” value ([1]; human, in vivo)?
Answer: 17.9%

Question: And the “median duration of resolved stomatitis/mucositis events” value ([1]; human, in vivo)?
Answer: 12.0 days

Question: What about the “median time to first onset of stomatitis/mucositis” value ([1]; human, in vivo) of the same compound?
Answer: 12.5 days

Question: What about the “n/N (DLT rate)” value ([1]; human, in vivo) of the same compound?
Answer: 1/33

Question: What about the “related Grade 4 or 5 adverse events” value ([1]; human, in vivo) of the same compound?
Answer: No related Grade 4 or 5 adverse events

Question: What about the “treatment-emergent hyperglycemia, patients” value ([1]; human, in vivo) of the same compound?
Answer: 6.8%

Question: And the TGI ([2]; 1 mg/kg IP QW)?
Answer: 79% and 81%

Question: And the TGI ([2]; 3 mg/kg IP QW)?
Answer: 94% and 96%

Question: What about the TGI ([2]; 10 mg/kg IP QW) of the same compound?
Answer: 95% and 92%

Question: And the tumor regression ([3]; 3 mg/kg IP QW)?
Answer: 91% regression

Question: And the tumor regression ([3]; 10 mg/kg IP QW)?
Answer: 94% regression
